Laboratory results from US20190388490A1, “PLANT EXTRACTIONS, COMPOSITIONS CONTAINING SAME, AND USES THEREOF” (priority 2010, published 2019).

Assay: Free radical scavenging by ESR with DPPH
Conditions: 100 μg mixed with alcohol solution of DPPH for 2 minutes
Description: The free radical scavenging capacity of the Bacopa monniera extract product was evaluated using spectrophotometric and electron spin resonance (ESR) techniques. ESR is considered to be the least ambiguous method for the detection of free radicals. 2,2-Diphenyl -1-picrylhydrazyl (DPPH) was used as a stable free radical. An alcohol solution of DPPH was mixed with 100 μg of a Bacopa monniera extract product for 2 minutes and then ESR measurements were conducted. Quercetine was used as a positive control for scavenging the free radicals.

O=c1c(O)c(-c2ccc(O)c(O)c2)oc2cc(O)cc(O)c12 [quercetine, Quercetine]
effect on DPPH free radical ESR peak: slight change in peak height
